Results taken from patent EP0403963A2, “Anthracycline derivatives, process for their preparation and their use as medicaments” (priority 1989, dated 1990).
In brackets after ≈: the same amount, converted by molar mass. Read-outs that look alike come from different tables or passages of the source.

Assays:
[1] = test system: L1210 Leukämiezellen; test: Proliferation test (MTT), continuous incubation; type: cell-based, Maus; settings: for IC50: Mus musculus, read-out: Zytotoxizität (Dauerinkubation) IC50
Description: Kontrollen bestehen aus Zellen, die lediglich mit frischem Medium inkubiert werden. Alle Bestimmungen werden als 4-fache Bestimmung durchgeführt. Nach 65 Stunden werden 50 ul MTT (3-(4,5-Dimethylthiazol-2-yl)-2,5-diphenyl-tetrazoliumbromid, 2,5 mg/mi in PBS) zugegeben. MTT wird durch lebende Zellen zu einem […], unlöslichen Formazan-Farbstoff reduziert. Nach einer weiteren 7-stündigen Inkubation wird das überstehende Medium vorsichtig abgesaugt. Der Formazan-Farbstoff wird durch Zugabe von jeweils 100 ul DMSO in die Vertiefungen der Mikrotiterplatte und vorsichtiges Schütteln gelöst. Die Extinktion der jeweiligen Lösung wird mit Hilfe eines Multiscan Photometers 340 CC, Fa. Flow, bei 492 nm gemessen.

[2] = Acute toxicity, intravenous injection; type: in vivo, Mäusen; settings: mouse, in vivo, iv; i.v. on day 0, 3 and 6; survivors counted on day 20; 2 mice per dose; read-out: akute Toxizität LD50
Description: (§1) Zur Ermittlung der akuten Toxizität wurden BDFi-Mäusen am Tag 0, Tag 3 und Tag 6 unterschiedliche Dosen der Testsubstanz, gelöst in 0,4 ml physiologischer Kochsalzlösung, intravenös injiziert. Kontrollgruppen erhielten lediglich 0,4 ml physiologischer Kochsalzlösung. Pro Konzentration der Testsubstanz wurden 2 Mäuse verwendet. Am Tag 20 wurde die Zahl der überlebenden Mäuse und daraus die LD50 ermittelt. Die Toxizität der hier beschriebenen Verbindungen im Vergleich zu Adriamycin ist in Tabelle 1 zusammengefaßt.

[3] = Qualitative solubility of the isolated substance; type: physicochemical; settings: solvents: Methanol, Ethylacetat, Chloroform, Wasser, Hexan
[4] = test system: BDFi-Mäusen; test: Acute toxicity, intravenous injection; type: in vivo; settings: i.v. on day 0, 3 and 6; survivors counted on day 20; 2 mice per dose; 28800 min
Description: as §1

[5] = L1210 cells, 72 h incubation, MTT readout at 492 nm

Compound	IC50 [1, 5] [µg/mL]	LD50 at 480 h [2] [mg/kg]	Löslichkeit [3]	IC50 ([1]; L1210, 72 h) [µg/mL]	Zytotoxizität (Dauerinkubation) IC50 [1, 5]	akute Toxizität LD50 [4] [mg/kg]
CC[C@@]1(O[C@H]2C[C@H](N(C)C)[C@H](O)[C@H](C)O2)CCc2c(O)c3c(c(O)c2[C@H]1O[C@H]1C[C@H](N(C)C)[C@H](O)[C@H](C)O1)C(=O)c1cccc(O)c1C3=O [9-0,10-0-Bis (α-L-rhodosaminyl)-γ-rhodomycinon]	0.35 (≈ 0.511 µM)	25 to 50	leicht löslich in Methanol, Ethylacetat, Chloroform, unlöslich in Wasser und Hexan			
COc1cccc2c1C(=O)c1c(O)c3c(c(O)c1C2=O)C[C@@](O)(C(=O)CO)C[C@@H]3O[C@H]1C[C@H](N)[C@H](O)[C@H](C)O1 [Adriamycin, reference compound]		10		0.02 to 0.03 (≈ 0.0368 to 0.0552 µM)		
Cytorhodin Z			leicht löslich in Methanol, Ethylacetat, Chloroform, unlöslich in Wasser und Hexan		0,33 µg/ml	10 to 25
